Patent US20260335323A1, “CHIMERIC MOLECULE” (UCL Business Ltd, priority 2023, published 2026)

Assays:
[1] = test system: Mfn2; experiment: Western blot, Mfn2 degradation in MEF WT; type: cell-based, mouse; conditions: MEF WT
Experimental: (§1) FIG. 6. ULKTACs rely on ULK1 for the redirection of autophagy components to mitochondria and subsequent mitophagic degradation (A) Western blot of mouse embryonic fibroblasts (MEF) WT and MEF ULK1/2^−/− treated with 1 mM ULKTACs, 5 mM CCCP or both and probed for ULK1, Mfn2 and Actin—quantification of the relative intensity of Mfn2 shown in (B), normalised to Actin. Representative immunofluorescence of MEF WT (C) and MEF ULK1/2^−/− (D) treated with 5 mM CCCP, 1 mM ULKTACs or both and immunostained for Alexa 488 ATP5a and Alexa 647 LC3B. Quantification of the colocalised LC3 to ATP5a spot area shown in WT vs ULK1/2^−/− treated MEF cells shown in (E). Data shown are mean±SEM, n=3, *p<0.05, ** p<0.01, *** p<0.001, Two-way ANOVA with Tukey's multiple comparisons test.
Cells were homogenised in protein lysis buffer consisting of 0.1 M Tris pH 8.0, 0.1 M NaCl, 5% glycerol, IGEPAL® CA-630 (#18896. Sigma-Aldrich) and 5 mM EDTA, 0.1 M N-ethyl maleimide (ThermoFisher, #23030) and protease inhibitor (Cell Signalling Technologies, #5871). Protein concentrations were determined using the BCA assay to ensure equal loading. […] The membranes were immunoblotted with primary antibodies, overnight at 4° C. ULK1 (D8H5) Rabbit mAb (#0854) [1:1000], Phospho-ULK1 (Ser 317) Rabbit antibody (#37762) [1:1000], LC3B Rabbit antibody (#2775) [1:1000], TOM20 (D8T4N) Rabbit mAb (#42406) [1:1000] and, Phospho-Ubiquitin (Ser 65) (E2J6T) Rabbit mAb (#62082) [1:500] were obtained from Cell Signalling Technologies. Recombinant Anti-Vinculin Rabbit antibody (EPR8185) (#ab129002) [1:5000] and Anti-Mitofusin2 mouse antibody (6A8) (#ab56889) [1:1000] were purchased from Abcam. Anti-Actin mouse monoclonal antibody (#A1978) [1:1000] and Anti-rabbit p62/SQSTM1 (#P0067) [1:1000], were purchased from Sigma-Aldrich. Mono- and polyubiquitinylated conjugates monoclonal antibody (FK2) (BML-PW8810-0100) [1:500] was purchased from Enzo Life Sciences. Anti BRD4 (E2A7X) rabbit monoclonal antibody (#13440), Anti c-MYC (D84C12) rabbit monoclonal antibody (#5605) [1:1000], Anti GAPDH (D4C6R) mouse monoclonal antibody (#97166) [1:1000], Anti Max (S20) rabbit monoclonal antibody (#4739) [1:1000] were purchased from Cell Signalling Technologies. Anti Phospho-CHK1 (Ser 345) rabbit monoclonal antibody (#2341) [1:1000], Anti gamma-H2AX (Ser 139) rabbit monoclonal antibody (#2577) [1:1000] were obtained from Cell Signalling Technologies, Anti RPA32/RPA2 (phospho S4/S8) rabbit monoclonal antibody (ab87277) [1:1000] were obtained from Abcam.
Membranes were then incubated with horseradish peroxidase (HRP)-conjugated secondary antibodies (Rabbit #7074 and Mouse #7076) purchased from Cell Signalling Technologies for 1 hour and the HRP signal was detected using EZ-ECL Enhanced Chemiluminescence Detection Kit for HRP (#20-500-500, Sartorius), and imaged with an Alliance Q9 Advanced (UVITec). Where required, membranes were stripped with mild stripping buffer consisting of 0.2 M glycine, 3.47 mM SDS, 1% Tween 20, pH 2.2, blocked for 1 hour with TBS-T+3% BSA and re-probed with primary antibodies.
Therefore, we conclude that NZ-65 and NZ-66 are novel ULKTAC molecules that initiate the recruitment of ULK1 to mitochondria, leading to an increase in local ULK1 activity, the formation of an autophagosome and mitophagy.

[2] = test system: LC3; experiment: ATP5a/LC3 co-localisation immunofluorescence in MEF ULK1/2-/-; type: cell-based, mouse; conditions: ULK1/2-/- cells
Experimental: as §1
For TOM20/ULK1 immunofluorescence, cells were seeded in a 384 well PerkinElmer CellCarrier Ultra plate 24 hours prior to treatment with compounds. Cells were treated for 18 hours after which they were fixed with 4% paraformaldehyde (PFA) in phosphate buffered saline (PBS) and blocked with 10% FBS and 0.1% Triton in PBS. Plates were incubated at 4° C. overnight, with 1:400 mouse anti-TOM20 (Santa Cruz, #sc-17764) and 1:400 rabbit anti-ULK1 (Cell Signalling Technologies, #0854). […]

[3] = test system: A549 cells; experiment: Colony formation assay, A549; type: cell-based, human; conditions: A549, 100 nM, 72 hours
Experimental: A549 and H1299 cells were seeded in 12 well plates at approximately 100 cells per well. In Example 8, wells were treated with DMSO, (+)-JQ1 or NZ-147. In Example 9, cells were treated with DMSO or NZ-175. Colonies were allowed to form over 120 h. Cells were fixed and stained with crystal violet staining solution, prepared in 70% ethanol.
A colony formation assay was performed in A549 and H1299 cells, which were treated with DMSO, (+)-JQ1 or NZ-147 at 100 nM for 72 hours and stained with crystal violet (FIG. 10A).
A colony formation assay was performed in A549 and H1299 cells, which were treated with DMSO or NZ-175 at 100 nM for 72 hours and stained with crystal violet (FIG. 16A).

Row | Structure (SMILES) | degradation of Mfn2 ([1]; co-treatment with CCCP) | degradation of Mfn2 ([1]; compound alone) | co-localisation of ATP5a with LC3 [2] | colony formation [3]
1 | O=C(Nc1cc(C(F)(F)F)cc(C(F)(F)F)c1)N[C@@H](C(=O)Nc1ccc(F)cc1F)c1ccc(OCc2cn(CCCCCCNC(=O)C(=O)c3c(-c4ccccc4)[nH]c4ccccc34)nn2)cc1 [NZ-66, (R)-2-(3-(3,5-bis(trifluoromethyl)phenyl)ureido)-N-(2,4-difluorophenyl)-2-(4-((1-(6-(2-oxo-2-(2-phenyl-1H-indol-3-yl)acetamido)hexyl)-1H-1,2,3-triazol-4-yl)methoxy)phenyl) acetamide] | further enhanced by co-treatment with CCCP | degradation of Mfn2 | absent | 
2 | O=C(Nc1cc(C(F)(F)F)cc(C(F)(F)F)c1)N[C@@H](C(=O)Nc1ccc(F)cc1F)c1ccc(OCc2cn(CCOCCOCCNC(=O)C(=O)c3c(-c4ccccc4)[nH]c4ccccc34)nn2)cc1 [NZ-65, (R)-2-(3-(3,5-bis(trifluoromethyl)phenyl)ureido)-N-(2,4-difluorophenyl)-2-(4-((1-(2-(2-(2-(2-oxo-2-(2-phenyl-1H-indol-3-yl)acetamido)ethoxy)ethoxy)ethyl)-1H-1,2,3-triazol-4-yl)methoxy)phenyl) acetamide] | further enhanced by co-treatment with CCCP | degradation of Mfn2 | absent | 
3 | Cc1sc2c(c1C)C(c1ccc(Cl)cc1)=N[C@@H](CC(=O)NCCOCCOCCOCCn1cc(COc3ccc([C@@H](NC(=O)Nc4cc(C(F)(F)F)cc(C(F)(F)F)c4)C(=O)Nc4ccc(F)cc4F)cc3)nn1)c1nnc(C)n1-2 [NZ-147, (R)-2-(3-(3,5-bis(trifluoromethyl)phenyl)ureido)-2-(4-((1-(1-((S)-4-(4-chlorophenyl)-2,3,9-trimethyl-6H-thieno[3,2-f][1,2,4]triazolo[4,3-a][1,4]diazepin-6-yl)-2-oxo-6,9, 12-trioxa-3-azatetradecan-14-yl)-1H-1,2,3-triazol-4-yl)methoxy)phenyl)-N-(2,4-difluorophenyl) acetamide] |  |  |  | Fewest colonies formed
